# Reference: patent publication US10870889B2, “Immunoglobulin expression levels as biomarker for proteasome inhibitor response” (Onyx Therapeutics, Inc., priority 2013, dated 2020)
# Values joined by “and” are separate entries in the source; they are usually repeats but may differ in a detail not shown here. Identical values can stand only once.
# Key:
# [1] = system: multiple myeloma patients; assay: Bortezomib data analysis: combined Ig expression score (Affymetrix microarray, CD138+ tumor cells, GSE9782) versus response and time-to-progression on single-agent bortezomib or dexamethasone; assay type: in vivo, human; settings: bortezomib-treated patients
# Source text: Publicly available RNA microarray data in tab-delimited text format were downloaded from the Gene Expression Omnibus (GEO ID: GSE9782).
# A list of 55 probes from this Affymetrix microarray platform that map to genes encoding immunoglobulin (Ig)-related proteins was obtained from Rody et al. Addition File 5. This example tested for an association between normalized intensity of each of these 55 probes and bortezomib response, which was labeled as “PGx_Responder=R” in the dataset. […] The finding of 13 significant associations is far more than expected by chance (Binomial P-value=2×10^−6). […] It is not surprising that many probes are not associated, given that some map to rarer, patient-specific portions of the Ig loci and that others map to regions that are unusually highly-expressed, and therefore not well-measured with microarray technology (i.e., their fluorescence is likely to be saturated).
# Patients were classified as achieving complete response (CR), partial response (PR), minimal response (MR), no change (NC), or progressive disease (PD), using European Group for Bone Marrow Transplantation criteria. In brief, PD requires 25% increase in paraprotein, whereas MR, PR, and CR require at least 25%, 50%, and 100% decreases, respectively.
# Various mean IG expression cutoffs were considered to maximize the clinical utility of a potential diagnostic test. Ultimately, a cutoff of 0.29 (defining “IG-High”>=0.29 and “IG-Low”<0.29) was chosen, predicting response in the training data with 71% sensitivity and 62% specificity. This same cutoff was then applied to time-to-progression (TTP) data for these patients, finding that IG-High patients in this cohort have a 1.4-fold longer median TTP than IG-Low patients (8.4 months vs. 6.0 months; log-rank P-value=0.025).
# [2] = system: multiple myeloma patients; assay: Carfilzomib data analysis: IGH/IGK/IGL and FCGR2B expression (RNA-Seq, FPKQ, CD138+ tumor cells) versus response, cutoffs with % sensitivity/% specificity (ROC) and time-to-progression on single-agent carfilzomib; assay type: in vivo, human
# Method: (§1) Bone marrow samples were aspirated from patients enrolled on Onyx-sponsored Phase 2 trials (NCT00511238, NCT00530816, and NCT00721734) prior to treatment with single-agent carfilzomib. Myeloma tumor cells were isolated by EasySep® immunomagnetic bead-based CD138+ selection (StemCell Technologies), re-suspended in TRIzol (Life Technologies) and frozen at […]. RNA was extracted from these samples with the PureLink RNA kit from Life Technologies (Cat #12183018A), following the recommended protocol for cells in TRIzol suspension, including the optional on-column DNase treatment. Elution volumes ranged from 75 μl-30 μl depending on the total number of cells going into isolation. ERCC control sequences from Life Technologies (ERCC ExFold RNA Spike-In Mix; Cat #4456739) were spiked in to all total RNA samples of sufficient quantity (Nanodrop yield>=150 ng) and quality (Bioanalyzer RIN>=7.0). For 500 ng input libraries, 1 μl of a 1:100 dilution of Mix 1 was added to each total RNA sample and for 150 ng input libraries, 3 μl of a 1:1000 dilution of Mix 1 was added to each total RNA sample. The resulting material was used to construct RNA-Seq libraries with Illumina's TruSeq RNA sample prep kit v2 (Cat #RS-122-2001), with PolyA selection included as the first step. Libraries were sequenced on Illumina's HiSeq 2000 with a target of 70 million fragments using 100×100 bp paired-end sequencing to generate 140 million reads per sample and the resulting raw data was QC-ed with metrics implemented in OmicSoft Array Studio v6.1.
# (§2) Raw sequence reads were aligned and expression of genes & isoforms were quantified with a customized pipeline also built in Array Studio v6.1 [Jun]. This pipeline accepts Illumina adapter-stripped, paired-end reads that are trimmed at the […] if a base reaches PHRED quality score Q2 or lower. All reads are aligned to the transcriptome, which consists of the RefGene annotation of human hg19 supplemented with the more rich Ig loci annotations available from ENSEMBL. Reads aligned with mismatches and unaligned reads are subsequently aligned to the entire human genome, searching for novel exon junctions. Reads that remain unaligned are then aligned to the newly identified exon junctions. Alignments to the different references are compared and the highest scoring alignment is retained, or in the event of a tie, the transcriptome alignment is preferentially kept. Finally, all transcriptome alignment locations are translated to genomic coordinates to estimate the expected number of mappings per gene/isoform using the EM algorithm [Dempster]. The EM algorithm assigns reads with multiple alignment locations to an isoform by calculating the conditional probability of a read aligning to a specific isoform, given all other alignments. Weighting the total number of aligned reads with this probability yields posterior expected read counts for each transcript. The EM counts are normalized by the length of the genes/isoforms and number of reads in a library to yield FPKM values (Fragments Per Kilobase per Million reads). Between-sample normalization is achieved by 75th quantile normalization, where each sample is scaled by the median of 75th quantiles from all samples to yield quantile-normalized FPKM or “FPKQ” values.
# The FPKQ values corresponding to each “gene” of the three Ig loci, IGH (immunoglobulin heavy locus), IGK (immunoglobulin kappa locus) and IGL (immunoglobulin lambda locus), were summed to produce locus-level expression estimates.
# Patients with a best overall response of minimal response (MR) or better (i.e., MR, partial response [PR], very good partial response [VGPR] and complete response [CR]) were grouped into a responder category (N=27; abbreviated as “R”) and patients with a best overall response of stable disease (SD) or worse (i.e., SD and progressive disease [PD]) were grouped into a non-responder category (N=33; abbreviated as “NR”). […]
# [3] = system: Line B (low Ig) hybridoma cells; assay: Hybridoma sensitivity to carfilzomib, CellTiter-Glo Luminescent Cell Viability Assay, Line B; assay type: cell-based; settings: 72h treatment, viability vs no treatment control
# Method: (§3) The two hybridoma cell lines were tested for sensitivity to carfilzomib. Cells of each of Line A (high Ig) and Line B (low Ig) were treated with various doses (40 nM, 30 nM, 20 nM, 15 nM, l0 nM, 7.5 nM, 5 nM, 3.75 nM and 2.5 nM) of carfilzomib for 72h. The viability of the cells were then measured by CellTiter-Glo® Luminescent Cell Viability Assay (Cat. No. G7570; Promega Corporation) and compared to no treatment control.
# [4] = system: Line A (high Ig) hybridoma cells; assay: Hybridoma sensitivity to carfilzomib, CellTiter-Glo Luminescent Cell Viability Assay, Line A; assay type: cell-based; settings: 72h treatment, viability vs no treatment control, read-out: inhibitory concentration (IC50) on the cells of Line A
# Method: as §3
# IG expression = IG expression in tumor sample of one patient at screening and on Cycle 1 Day 2 of single-agent carfilzomib (RNA-Seq); assay type: in vivo, human
# Method: as §1, §2
# To understand, how IG expression changes during treatment with proteasome inhibitors, the data was examined from one patient for which both a screening tumor sample and a sample collected on Cycle 1 Day 2 (C1D2) of treatment with single-agent carfilzomib were available.
# [5] = system: high and low Ig-expressing hybridoma cell lines; assay: Drug sensitivity assay on two additional pairs of high and low Ig-expressing hybridoma cell lines; assay type: cell-based
# [6] = FCGR2B cutoffs 75 and 5 combined with IGH-High cutoff 140,000
# [7] = Screening vs C1D2, one patient, single-agent carfilzomib
# [8] = one patient, tumor sample on Cycle 1 Day 2 of single-agent carfilzomib
structure (smiles),measurement,setting,value
CC(C)C[C@H](NC(=O)[C@H](Cc1ccccc1)NC(=O)c1cnccn1)B(O)O [bortezomib],"fold longer median TTP, IG-High vs IG-Low patients","[1]; cutoff 0.29, log-rank P-value=0.025",1.4 fold
same,"median TTP (time-to-progression), IG-Low patients",[1]; mean IG expression score <0.29,6.0 months
same,"median TTP (time-to-progression), IG-High patients",[1]; mean IG expression score >=0.29,8.4 months
CC(C)C[C@H](NC(=O)[C@H](CCc1ccccc1)NC(=O)CN1CCOCC1)C(=O)N[C@@H](Cc1ccccc1)C(=O)N[C@@H](CC(C)C)C(=O)[C@@]1(C)CO1 [carfilzomib],"median TTP, IGH+FCGR2B-Negative patients",[2]; [6],1.2 months
same,"median TTP, IGH+FCGR2B-Positive patients",[2]; [6],8.9 months
same,"median TTP (time to progression), IGH-Low patients","[2]; IGH FPKQ <160,000",1.4 months and 1.3 months
same,"median TTP (time to progression), IGH-High patients","[2]; IGH FPKQ >=160,000",7.6 months and 7.3 months
same,"fold longer median TTP, IGH-High vs IGH-Low patients",[2]; log-rank P-value=0.003,6 fold and 5.4 fold
same,"fold longer median TTP, IGH+FCGR2B-Positive vs IGH+FCGR2B-Negative patients",[2]; log-rank P-value=3×10−5,7.3 fold
same,IC50,[3],24.3 nM
same,IC50,[4],10.4 nM
same,"Fold-Change of expression, gene ICKV3-20",IG expression; [7],4.11
same,"Fold-Change of expression, gene IGHA1",IG expression; [7],3.37
same,"Fold-Change of expression, gene IGHV3-30",IG expression; [7],3.63
same,"Fold-Change of expression, gene IGHV3-33",IG expression; [7],3.77
same,"Fold-Change of expression, gene IGKC",IG expression; [7],3.88
same,IG expression lower in the sample collected one day after the first dose,"IG expression; one patient, screening vs C1D2",3- to 4 fold
same,"Expression C1D2, gene ICKV3-20",IG expression; [8],9.6E+04
same,"Expression C1D2, gene IGHA1",IG expression; [8],1.3E+05
same,"Expression C1D2, gene IGHV3-30",IG expression; [8],2.4E+04
same,"Expression C1D2, gene IGHV3-33",IG expression; [8],2.1E+04
same,"Expression C1D2, gene IGKC",IG expression; [8],1.4E+05
same,sensitivity of high Ig-expressing hybridoma lines relative to low Ig-expressing lines,[5],greater sensitivity
